From patent US20150158931A1, “CYSTEINE PROTEASE CAPTURING AGENTS” (Stichting Het Nederlands Kanker Instituut, priority 2012, published 2015)
Primed or numbered codes have the meaning given here. PEG4′ = not defined here; PRG = propargyl

Experiments:
[1] = tested on: SENPs (GST-SENP1, SENP6, SENP7); assay: Labeling of SENPs with SUMO-PRG peptides (SDS-PAGE, fluorescence); format: binding, human; details: for selective capturing / binding of SENPs: SENPs 1 μM, peptides 50 μM, 1 hour at RT; for binding to SENPs denatured prior to addition of the peptides: hydrolases denatured (1x LB, 5 min boiling) before peptide
Experimental: The following experiment was performed to confirm that propargyl modified SUMO peptide (fragments) in accordance with the invention are selective capturing agent for the corresponding SENPs. The following SUMO peptides and SENPs were used in the Experiment. • SUMO peptides: • SUMO1=Cy5-PEG4-YQEQTG-PRG • SUMO2,3=Cy5-PEG4-FQQQTG-PRG • SENPs: • GST-SENP1 (43 kDa) • SENP6 (33.1 kDa) • SENP7 (37.2 kDa)
The SENPs (1 μM final concentration) were incubated with the SUMO-PRG peptides (50 μM final concentrations) for 1 hour at RT in buffer (20 mM Tris, 100 mM NaCl, 1 mM DTT, pH 7.5). Samples were denatured using 1× LB and boiled for 5 min. As a control, the SENPs were denatured (1×LB and 5 min. boiling) prior to treatment with the SUMO-PRG peptides. Samples were resolved by SDS-PAGE (12% polyacryl amide, MES buffer) and proteins were visualized by fluorescence (λex,em=625,680 nm) and CBB staining.

[2] = tested on: DUBs in cell lysates; assay: Labeling of active DUBs in cell lysates at endogenous levels with fluorescent probe; format: binding; details: fluorescence
[3] = tested on: GFP-DUB fusions (catalytic cysteine to serine mutants); assay: Labeling of overexpressed GFP-DUB fusions in cell lysates; format: binding; details: transfected cells, lysate
Experimental: For overexpression of GFP-tagged DUBs in cells, wild type USP14, Otub1, Otub2, Otud1 and POH1 were subcloned from pDEST-cDNA constructs (Addgene) into the eGFP-C1 vector system (Clontech) at XhoI/EcoRI restriction sites. Mutagenesis of catalytic Cysteines was performed by standard protocols (Stratagene) using the following primers (sites of mutagenesis underlined): USP14-C114S forward-CTTGGTAACACTTCTTACATGAATGCC, reverse-GGCATTCATGTAAGAAGTGTTACCAAG; Otub1-C9/S forward-CCTGACGGCAACTCTTTCTATCGGGC, reverse-GC CCGATAGAAAGAGTTGCCGTCAGG; Otub2-C51S forward-GG GATGGGAACTCCTTCTACAGGGCC, reverse-GGCCCTGTAGAAGGAGTTCCCATCCC. […] Reactions were stopped by the addition sample loading buffer supplemented with (β-mercaptoethanol, followed by boiling for 10 min. Samples were resolved on 4-12% MOPS NU-PAGE Gels (Invitrogen) and probe reactivity was assessed by TAMRA fluorescence scanning as described above. Gels were then transferred onto Nitrocellulose membranes and immunoblotted using anti-GFP serum produced in rabbit and mouse anti-β-actin (Sigma-Aldrich). Immunoblots were visualized using a Licor Odyssey. The following fluorescent secondary antibodies purchased from LICOR were used: anti-mouse-680, anti-rabbit-800.

[4] = target: T1, UCH-L3 (Homo sapiens, UniProt P15374); assay: Reaction between Ubiquitin75-propargylamide and UCH-L3 (LC-MS, SDS-PAGE); format: binding
T1 construct: made in house
T1 sequence (P15374 1-230): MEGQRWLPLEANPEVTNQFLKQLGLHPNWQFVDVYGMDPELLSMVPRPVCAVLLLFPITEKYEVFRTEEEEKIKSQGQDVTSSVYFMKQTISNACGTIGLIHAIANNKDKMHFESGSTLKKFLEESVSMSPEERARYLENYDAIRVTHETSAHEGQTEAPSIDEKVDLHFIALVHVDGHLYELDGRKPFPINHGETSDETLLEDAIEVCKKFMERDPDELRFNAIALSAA
Experimental: Recombinant UCH-L3 was expressed and purified as described previously (C. N. Larsen, J. S. Price, K. D. Wilkinson, Biochemistry 35, 6735 (1996)).
(§1) General procedure: DUB was dissolved in PBS with 5 mM dithiothreitol to a concentration of 1 mg/mL.

[5] = tested on: cysteine protease DUBs; assay: Reaction between Ubiquitin75-propargylamide and DUBs, in vitro labeling; format: binding; details: including OTU-domain containing DUBs
Experimental: as §1

[6] = target: T2, papain (Carica papaya, UniProt P00784); assay: In vitro labeling reaction of cysteine proteases: papain; format: binding
T2 construct: papain, a general cysteine protease obtained from Papaya Latex; from tissue; host or cells: papaya latex
T2 sequence (P00784 134-345): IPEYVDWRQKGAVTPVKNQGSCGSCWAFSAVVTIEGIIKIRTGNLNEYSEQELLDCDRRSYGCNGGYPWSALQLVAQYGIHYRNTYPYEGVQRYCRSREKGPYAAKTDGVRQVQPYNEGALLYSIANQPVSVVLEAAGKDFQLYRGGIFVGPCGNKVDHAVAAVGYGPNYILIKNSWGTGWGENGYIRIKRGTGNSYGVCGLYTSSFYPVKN
Experimental: as §1

[7] = tested on: SENP-1; assay: In vitro labeling reaction of cysteine proteases: SENP-1; format: binding
Experimental: as §1

[8] = target: T3, ubiquitin ligase E1 (Homo sapiens, UniProt P22314); assay: In vitro labeling reaction: ubiquitin ligase E1; format: binding
T3 sequence (P22314 1-1058): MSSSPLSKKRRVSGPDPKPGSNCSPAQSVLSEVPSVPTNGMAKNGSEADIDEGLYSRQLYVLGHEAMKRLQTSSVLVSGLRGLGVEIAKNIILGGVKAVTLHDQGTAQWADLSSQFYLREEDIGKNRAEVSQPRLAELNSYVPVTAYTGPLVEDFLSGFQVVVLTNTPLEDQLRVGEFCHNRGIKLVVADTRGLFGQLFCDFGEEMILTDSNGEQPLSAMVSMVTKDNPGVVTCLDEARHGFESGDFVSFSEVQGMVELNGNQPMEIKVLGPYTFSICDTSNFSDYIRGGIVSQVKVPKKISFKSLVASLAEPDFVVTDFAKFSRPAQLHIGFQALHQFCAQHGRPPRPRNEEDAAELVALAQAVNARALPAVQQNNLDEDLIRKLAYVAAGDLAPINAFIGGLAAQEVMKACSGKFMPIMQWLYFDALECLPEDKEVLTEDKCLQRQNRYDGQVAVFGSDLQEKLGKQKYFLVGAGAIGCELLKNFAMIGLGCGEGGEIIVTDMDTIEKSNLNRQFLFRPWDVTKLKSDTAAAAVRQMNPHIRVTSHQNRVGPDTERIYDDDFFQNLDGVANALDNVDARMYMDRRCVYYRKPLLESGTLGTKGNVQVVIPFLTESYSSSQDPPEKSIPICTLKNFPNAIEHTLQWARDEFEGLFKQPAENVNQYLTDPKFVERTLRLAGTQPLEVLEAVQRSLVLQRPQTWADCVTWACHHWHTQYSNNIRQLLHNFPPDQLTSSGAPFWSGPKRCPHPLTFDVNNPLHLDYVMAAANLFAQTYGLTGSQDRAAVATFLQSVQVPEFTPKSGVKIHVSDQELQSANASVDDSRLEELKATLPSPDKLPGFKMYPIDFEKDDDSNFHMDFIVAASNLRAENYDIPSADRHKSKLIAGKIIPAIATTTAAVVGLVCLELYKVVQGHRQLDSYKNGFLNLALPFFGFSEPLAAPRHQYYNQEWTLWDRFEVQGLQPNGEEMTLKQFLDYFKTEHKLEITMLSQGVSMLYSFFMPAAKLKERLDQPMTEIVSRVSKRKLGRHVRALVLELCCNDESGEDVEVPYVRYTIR
Experimental: as §1

[9] = target: T1, UCH-L3; assay: Acid cleavage of the complex between Ubiquitin75-propargylamide and the DUBs; details: incubation with various acids
Experimental: To a solution of Ubiquitin75-propargylamide-UCH-L3 complex in PBS (3 mg/mL; 10 μL) was added a 3-fold concentrated solution of the tested acid. The reactions were incubated overnight and analyzed by SDS-PAGE chromatography and/or mass spectrometry.

[10] = target: T1, UCH-L3; assay: Thioradical-mediated cleavage of Ub-Prg-UCH-L3 complex; details: ethane thiol 50 mM, VA-044 10 mM, three hours
Experimental: The reaction was incubated for 30 minutes at 37° C. and was buffer exchanged into water by PD-10 column (GE Healthcare) and lyophilized overnight. The resulting white powder was dissolved in PBS (100 μL) and to 90 μL of this solution 10 μL of ethanethiol was added (143 μmole) and VA-044 to a final concentration of 10 mM. The reaction was shaken at 37° C. for three hours prior to LC-MS analysis.
To a solution of Ub-prg-UCH-L3 complex in PBS (0.5 mg/mL; 80 μL) various amounts of thiol were added to the final concentrations indicated. Radical initiator VA-044 was added at the concentrations indicated and the reaction was shaken at 37° C. for 3 hours after which the reactions were analysed by non-reducing SDS-PAGE.

Cy5-PEG4-FQQQTG-PRG ({Cy5-PEG4′}-FQQQTG-{PRG}) [SUMO2,3, truncated fluorescent C-terminal propargylated SUMO peptide, C-termini of SUMO-2 and SUMO-3]
selective capturing / binding of SENPs [1]: selective binding | binding to SENPs denatured prior to addition of the peptides [1]: completely abolishes binding

Cy5-PEG4-YQEQTG-PRG ({Cy5-PEG4′}-YQEQTG-{PRG}) [SUMO1, truncated fluorescent C-terminal propargylated SUMO peptide, C-terminus of SUMO-1]
selective capturing / binding of SENPs [1]: selective binding | binding to SENPs denatured prior to addition of the peptides [1]: completely abolishes binding

TMR-Ub-Prg: N-terminally tetramethylrhodamine (TMR) labeled analogue of Ub-Prg
labeling of active DUBs in lysates at endogenous levels [2]: clear labeling results | reaction with DUB mutants, active site cysteine mutated to serine [3]: failed to react

Ubiquitin75-propargylamide [Ub-Prg]
bond formation with UCH-L3, stable to denaturing LC-MS and denaturing SDS-PAGE ([4]; 1.2 molar equivalents, 37 °C, 30 minutes): forms a bond with UCH-L3 | reactivity with UCH-L3 after pre-treatment with iodoacetamide ([4]; UCH-L3 pre-treated with general alkylating agent iodoacetamide): abolished all reactivity | complex formation with radical scavenger ([4]; presence of excess radical scavenger): complex formation | reaction in vitro with cysteine protease DUBs [5]: react in vitro with all cysteine protease DUBs tested | reaction in vitro with cysteine protease DUBs ([5]; listed as Ubiquitin-propargyl): reacts with all classes of cysteine deubiquitinating enzymes | reactivity towards papain [6]: unreactive | reactivity towards SENP-1 [7]: unreactive | reactivity towards ubiquitin ligase E1 [8]: no reactivity | reaction with DUB mutants, active site cysteine mutated to serine [3]: abolished binding | acid lability of complex with UCH-L3 [9]: cleavage of the complex | thioradical treatment of purified complex with UCH-L3 [10]: cleavage was observed
